The Ki is a measure of affinity in units of concentration, obtained from inhibition or displacement.

The values below come from ChEMBL document CHEMBL1125430, “Analogues of the dioxolanes dexoxadrol and etoxadrol as potential phencyclidine-like agents. Synthesis and structure-activity relationships” (J Med Chem, 1992).

The species named for this assay is Rattus norvegicus. In words: Displacement of [3H]TCP from PCP receptor in tissue preparation of whole rat brain minus cerebellum. Format: functional, organism-based. On the technique in general: Loss of bound radioactivity is the signal in a displacement assay; it reports binding, not function.

In turn, `CCC1(CC)OC[C@H]([C@@H]2CCCCN2)O1` yielded a Ki of 87 µM.
In turn, `CC[C@]1(c2cccc(O)c2)OC[C@H]([C@@H]2CCCCN2)O1` showed a Ki of 0.489 µM. Against the preceding compound, the Ki is about 180-fold lower.
The compound `c1ccc(CN2CCCC[C@H]2[C@H]2COC(c3ccccc3)(c3ccccc3)O2)cc1` yielded a Ki of 10.1 µM.
The result for `CN1CCCC[C@H]1[C@H]1COC(c2ccccc2)(c2ccccc2)O1` reads 4.4 µM; that for `CC[C@]1(c2ccccc2Cl)OC[C@H]([C@@H]2CCCCN2)O1`, 0.0143 µM.
As to `CC[C@]1(c2ccccc2F)OC[C@H]([C@@H]2CCCCN2)O1`, the affinity corresponds to a Ki of 0.036 µM.
Compound `CNC[C@H]1COC(c2ccccc2)(c2ccccc2)O1` registered a Ki of 7.3 µM.
As to `NC[C@H]1COC(c2ccccc2)(c2ccccc2)O1`, the Ki was found to be 1.4 µM.
`CC[C@]1(c2cccc([N+](=O)[O-])c2)OC[C@H]([C@@H]2CCCCN2)O1` came in with a Ki of 1.32 µM. This Ki and that of the compound before are within 1.5-fold of each other.
To `CCCCCCCCC[C@]1(c2ccccc2)OC[C@H]([C@@H]2CCCCN2)O1` belongs 43 µM; to `CCCC[C@]1(c2ccccc2)OC[C@H]([C@@H]2CCCCN2)O1`, 0.2 µM; to `CC[C@]1(c2ccc(O)cc2)OC[C@H]([C@@H]2CCCCN2)O1`, 19.9 µM.
To `C=CCN1CCCC[C@H]1[C@H]1COC(c2ccccc2)(c2ccccc2)O1` belongs 15.2 µM; to `CCC[C@H](NC)[C@H]1COC(c2ccccc2)(c2ccccc2)O1`, 7 µM; to `c1ccc(C2(c3ccccc3)OCC(C3CCCCN3)CO2)cc1` (stereo not drawn), above 100 µM.
The compound `CC[C@]1(c2cccc(Cl)c2)OC[C@H]([C@@H]2CCCCN2)O1` had a Ki of 0.059 µM.
To `C1=Cc2ccccc2C2(OC[C@H]([C@@H]3CCCCN3)O2)c2ccccc21` belongs 0.325 µM; to `CCNC[C@H]1COC(c2ccccc2)(c2ccccc2)O1`, 8.4 µM; to `C[C@H](N)[C@H]1COC(c2ccccc2)(c2ccccc2)O1`, 0.607 µM.
To `CC(C)[C@]1(c2ccccc2)OC[C@H]([C@@H]2CCCCN2)O1` belongs 0.045 µM; to `CC[C@]1(c2cccc(N=C=S)c2)OC[C@H]([C@@H]2CCCCN2)O1`, 0.59 µM.
The result for `CN[C@@H](C)[C@H]1COC(c2ccccc2)(c2ccccc2)O1` reads 0.703 µM; that for `CC[C@]1(c2ccsc2)OC[C@H]([C@@H]2CCCCN2)O1`, 0.124 µM.
`c1ccc(C2(c3ccccc3)OC[C@H]([C@@H]3CCCN3)O2)cc1` had a Ki above 10 µM.
In turn, `CCN[C@@H](C)[C@H]1COC(c2ccccc2)(c2ccccc2)O1` displayed a Ki of 9 µM.
For the compound `CCCCCCN1CCCC[C@H]1[C@H]1COC(c2ccccc2)(c2ccccc2)O1`, the Ki worked out at 21.2 µM.
Regarding `CC[C@]1(c2ccccc2O)OC[C@H]([C@@H]2CCCCN2)O1`, affinity was put at a Ki of 0.293 µM.
In turn, `CC[C@]1(c2ccc(Cl)cc2)OC[C@H]([C@@H]2CCCCN2)O1` displayed a Ki of 2.8 µM.
The result for `CC[C@]1(c2cccc(N)c2)OC[C@H]([C@@H]2CCCCN2)O1` reads 1.23 µM; that for `CCC[C@]1(c2ccccc2)OC[C@H]([C@@H]2CCCCN2)O1`, 0.069 µM; that for `CC[C@]1(c2cccs2)OC[C@H]([C@@H]2CCCCN2)O1`, 0.205 µM.
`CCN1CCCC[C@H]1[C@H]1COC(c2ccccc2)(c2ccccc2)O1` showed a Ki of 6.9 µM.
To `c1ccc(C2(c3ccccc3)OC[C@@H]([C@@H]3CCCN3)O2)cc1` belongs 3.3 µM; to `CC[C@]1(c2ccc(F)cc2)OC[C@H]([C@@H]2CCCCN2)O1`, 0.649 µM.
In turn, `C[C@]1(c2ccccc2)OC[C@H]([C@@H]2CCCCN2)O1` showed a Ki of 0.847 µM.
`CCC[C@H](N)[C@H]1COC(c2ccccc2)(c2ccccc2)O1` came in with a Ki of 3.45 µM.
The result for `CCCN1CCCC[C@H]1[C@H]1COC(c2ccccc2)(c2ccccc2)O1` reads 6.8 µM; that for `c1ccc([C@H]2OC[C@H]([C@@H]3CCCCN3)O2)cc1`, 25 µM.
The result for `c1ccc2c(c1)-c1ccccc1C21OC[C@H]([C@@H]2CCCCN2)O1` reads 15.5 µM; that for `c1ccc(C2(c3ccccc3)CCC(C3CCCCN3)C2)cc1` (single isomer, unassigned; 40a), 52 µM.
The result for `c1ccc(C2(c3ccccc3)CCC(C3CCCCN3)C2)cc1` (single isomer, unassigned; 40b) reads 8.3 µM; that for `CC[C@]1(c2ccccc2)OC[C@H]([C@@H]2CCCCN2)O1` [ETOXADROL], 0.107 µM; that for `c1ccc(C2(N3CCCCC3)CCCCC2)cc1` [PHENCYCLIDINE], 0.08 µM.
